This is an account of results in patent publication US5523321A, “Prostacyclins, their analogs or prostaglandins and thromboxane antagonists for treatment of thrombotic and thromboembolic syndromes” (Schering Aktiengeselleschaft, priority 1985, dated 1996).

Where two headings read alike, the source gives them in different places.

For series [1], the system named is intravascular thrombocyte aggregation (collagen-induced thrombocytopenia). Briefly: Intravascular thrombocyte aggregation on anesthetized rats (collagen-induced thrombocytopenia). The class given is in vivo. From the text: 2. Intravascular Thrombocyte Aggregation on Anesthetized Rats
The influence of the intravascular thrombocyte aggregation is examined on urethane anesthetized rats.
Collagen (100 micrograms/kg i.v. bolus) causes transitory thrombocytopenias (a transient loss of blood platelet concentration), measured by continuous taking of blood from the A. carotis (50 microliter/min) and thrombocyte counting in the Technicon Autocounter. The change of the collagen-induced thrombocytopenia (% of loss) in comparison with the initial value (=2nd collagen injection) serves as a measurement for the inhibition of the intravascular platelet aggregation.

The test system of series [2] is 2nd wave of aggregation induced by ADP (human PRP). Briefly: Thrombocyte function in vitro: 2nd wave of aggregation by ADP (human PRP). The class given is cell-based. As to conditions: for % Inhibition (2nd wave of aggregation): 0.5×10^-6 M ADP; for IC50: human PRP, stimulant ADP. As to the method: (§1) 1. Thrombocyte Function In Vitro (Human PRP)
(§2) BM 13 177 (in the text, BM) and Iloprost are tested in their action on thrombocyte aggregation and thrombocyte shape change against stimulants U 46 619 (9,11-dideoxy,9alpha-11alpha-methanoepoxy PGF2alpha, stable TXA2 agonist) and ADP and the IC50 values are determined. Then in several independent tests the action of a combination of the two substances on the aggregation (U 46 619 and ADP) in various concentrations is tested; especially the combination of low dosages and of dosages of the two substances in the range of the IC50 values is tested.
(§3) Platelet aggregation and shape change are measured as light-optical phenomena in stimulated PRP (platelet rich plasma) samples. In this case, the shape change is detected as the density increase of the sample by transition of the discoid rest shape of the platelet into a spherozytic shape with formation of pseudopodlike membrane formations and represented on a recorder. The aggregation is photometrically detected as density […] by clumping and "precipitation" of platelet aggregates and represented on a recorder.
Example 3: 2nd wave of aggregation by 0.5×10^-6 M ADP

The test system of series [3] is jugular vein thrombosis. Briefly: Jugular vein thrombosis on anesthetized rats. The series is classed as in vivo. How it is done: 4. Jugular Vein Thrombosis on Anesthetized Rats
By stressing of the jugular vein of rats anesthetized with urethane with a metal punch cooled to -15° C. (200 g, 2 min) the vessel is predamaged. The thrombus grown within 3 hours on this site is quantified (Hb content wet weight) by determinations of its Hb content (difference damaged-undamaged vessel segment).
The infusion of the test substances begins 15 min before damaging the vein and is continued until the end of the test.

Series [4] relates to mesenteric arteriole thrombosis (topical ADP). In words: Mesenteric arteriole thrombosis on anesthetized guinea pigs. The class given is in vivo. How it is done:
3. Mesenteric Arteriole Thrombosis on Anesthetized Guinea Pigs
A mesenteric loop for vital microscopy is prepared on anesthetized guinea pigs. After electrical lesion of an arteriole, under controlled conditions and after substance application, ADP is applied topically until finding of a thrombogenic dose (occlusion by platelet thrombus).
Parameters: increasing of the thrombogenic ADP concentration vs. initial value; i.v. infusion of Iloprost, i.v. injection of BM 13 177.

For series [5], the system named is platelet aggregation induced by U 46 619 (human PRP). Briefly: Thrombocyte function in vitro: aggregation by U 46 619 (human PRP). The class given is cell-based. As to the method:
as §1, §2, §3

In series [6] the test system is platelet shape change induced by U 46 619 (human PRP). In words: Thrombocyte function in vitro: shape change by U 46 619 (human PRP). The series is classed as cell-based. As to conditions: for IC50: human PRP, stimulant U 46 619. How it is done:
as §1, §2, §3
Example 2: Shape change by 50 ng/ml U 46 619

Series [7] can be described thus: Blood pressure of spontaneously hypertonic (SH) rats. The conditions noted are these: Iloprost 0.3 microgram/kg/min (threshold dose), awake SH rats.

As to `O=C(O)COc1ccc(CCNS(=O)(=O)c2ccccc2)cc1` [BM 13 177, 4-[2-(benzenesulfonamido)-ethyl]-phenoxyacetic acid], the “inhibition of collagen-induced thrombocytopenia” value in series [1] (BM 13 177 0.5 mg/kg/min (lowest dosage), MW±SE) is “about 27±6%”. In addition, in series [1] (BM 13 177 2 mg/kg i.v. infusion), the “platelet inhibition in vivo” value is on record as 27%. The “inhibition of collagen-induced thrombocytopenia on raising the dosage (in words)” value in series [1] (BM 13 177 1.0-2.0 mg/kg/min) is recorded as “cannot be increased by raising the dosage”. For the same compound, the “% Inhibition (2nd wave of aggregation)” value in series [2] (0.165 microM BM 13 177) is on record as “no inhibition”. For the same compound, the IC50 in series [2] (BM 13 177) lay within 330 to 660 nM; in series [5] (BM 13 177, human PRP, stimulant U 46 619, read-out: IC50 for the aggregation) it was 1650 to 6600 nM; in series [6] (Platelet, BM 13 177, read-out: IC50 for the shape change), 1650 to 3300 nM. The “antithrombotic effect, Hb content of thrombi (in words)” value in series [3] (BM 13 177 20 mg/kg i.v. bolus + 50 micrograms/kg/min i.v., monotherapy) was “ineffective”. Further, in series [3] (BM 13 177 as monotherapy), the “antithrombotic effect (in words)” value is given as “not antithrombotically effective”. Moreover, the “increase of thrombogenic ADP concentration (factor)” value in series [4] (BM 13 177 25 mg/kg i.v., significant) was approximately 4. Further, the inhibition at 0.66 µM in series [5] (Homo sapiens, 0.66 microM BM 13 177, 100 ng/ml U 46 619) came to 16%; in series [6] (Homo sapiens, Platelet, 0.66 microM BM 13 177, 50 ng/ml U 46 619) it was 28%.
On to `CC#CCC(C)[C@H](O)/C=C/[C@@H]1[C@H]2C/C(=C/CCCC(=O)O)C[C@H]2C[C@H]1O` (stereo partly shown) [Iloprost], for which the “inhibition of collagen-induced thrombocytopenia (in words)” value in series [1] (Iloprost 0.1-0.33-1.0 micrograms/kg/min) is “inhibits the collagen-induced thrombocytopenia, depending on the dose”. Also, the “% Inhibition (2nd wave of aggregation)” value in series [2] (0.1 ng/ml Iloprost) is given as “no inhibition”. In addition, the concentration for half-maximal inhibition (IC50) was in the range of 0.26 to 0.65 nM in series [2] (Iloprost); 1.3 to 2.6 nM in series [5] (Iloprost, human PRP, stimulant U 46 619, read-out: IC50 for the aggregation inhibition); 0.52 to 1.3 nM in series [6] (Platelet, Iloprost, read-out: IC50 for the shape change inhibition). Also, the “antithrombotic effect, Hb content of thrombi (in words)” value in series [3] (Iloprost 30 ng/kg/min i.v., individual dose) is “not significantly effective”. In addition, the “increase of thrombogenic ADP concentration (factor)” value in series [4] (Iloprost 0.1 microgram/kg/min i.v. (threshold dose)) is 2.8. Moreover, the inhibition at 0.0001 µg/mL in series [5] (Homo sapiens, 0.1 ng/ml Iloprost, 100 ng/ml U 46 619) was found to be 2%. Moreover, the “% Inhibition (shape change)” value in series [6] (0.1 ng/ml Iloprost, 50 ng/ml U 46 619) is on record as “no inhibition”. Moreover, the “reduction of diastolic blood pressure” value in series [7] was found to be 20%.
